Source: publication PMC11239830, “Synthetic macrolides overcoming MLSBK-resistant pathogens” (Cell Discovery, 2024)
Values after ≈ are worked out from the molar mass of the structure shown. Where two headings read alike, the source gives them in different places.

Legend:
Test in all cases: MIC, broth microdilution
S. aureus = format: cell-based, Staphylococcus aureus
Protocol: (§1) MICs were determined by the microdilution method according to the Clinical and Laboratory Standards Institute guidelines. […] Finally, the 96-well plates were incubated at 37 °C for 16–20 h to observe and record the results. […] The assay for MICs was replicated at least three times.

S. pyogenes = format: cell-based, Streptococcus pyogenes
Protocol: as §1

H. influenzae = format: cell-based, Haemophilus influenzae
Protocol: as §1

S. pneumoniae = format: cell-based, Streptococcus pneumoniae
Protocol: as §1

[1] = Staphylococcus aureus, S. aureus 15B196, c-ermB, read-out: MIC
[2] = Staphylococcus aureus, S. aureus PU32, i-ermA, read-out: MIC
[3] = Streptococcus pyogenes, S. pyogenes 12-206, c-ermTR, read-out: MIC
[4] = Haemophilus influenzae, ATCC49247, H. influenzae ATCC49247, Azi-S, read-out: MIC
[5] = Streptococcus pneumoniae, ATCC49619, S. pneumoniae ATCC49619, Ery-S, read-out: MIC
[6] = Streptococcus pneumoniae, S. pneumoniae 07P390, c-ermB, read-out: MIC
[7] = Streptococcus pneumoniae, S. pneumoniae PU09, mef, read-out: MIC
[8] = Streptococcus pyogenes, S. pyogenes 01-968, i-ermTR (Table S5), read-out: MIC
[9] = Streptococcus pyogenes, S. pyogenes 12-206, c-ermB (Table S5), read-out: MIC

Row | MIC (S. aureus; S. aureus 15B196, c-ermB) [µg/mL] | MIC (S. aureus; S. aureus PU32, i-ermA) [µg/mL] | MIC (S. pyogenes; S. pyogenes 12-206, c-ermTR) [µg/mL] | MIC (H. influenzae; H. influenzae ATCC49247, Azi-S) [µg/mL] | MIC (S. pneumoniae; S. pneumoniae 07P390, c-ermB) [µg/mL] | MIC (S. pneumoniae; S. pneumoniae ATCC49619, Ery-S) [µg/mL] | MIC (S. pneumoniae; S. pneumoniae PU09, mef) [µg/mL] | MIC (S. aureus; [1]) [µg/mL] | MIC (S. aureus; [2]) [µg/mL] | MIC (S. pyogenes; [3]) [µg/mL] | MIC (H. influenzae; [4]) [µg/mL] | MIC (S. pneumoniae; [5]) [µg/mL] | MIC (S. pneumoniae; [6]) [µg/mL] | MIC (S. pneumoniae; [7]) [µg/mL] | MIC (S. pyogenes; S. pyogenes 01-968, i-ermTR (Table S5)) [µg/mL] | MIC (S. pyogenes; S. pyogenes 12-206, c-ermB (Table S5)) [µg/mL] | MIC (S. pyogenes; [8]) [µg/mL] | MIC (S. pyogenes; [9]) [µg/mL] | SMILES
1 | 4 (≈ 4.03 µM) | 1 (≈ 1.01 µM) | 1 (≈ 1.01 µM) | – | – | – | – | 8 (≈ 8.05 µM) | 2 (≈ 2.01 µM) | 0.5 (≈ 0.503 µM) | – | ≤ 0.008 | – | ≤ 0.008 | – | – | – | – | CC[C@H]1OC(=O)[C@H](C)[C@@H](OC(=O)NCCCCCCC#Cc2ccc3c(=O)c(C(=O)O)cn(C4CC4)c3c2)[C@H](C)[C@@H](O[C@@H]2O[C@H](C)C[C@H](N(C)C)[C@H]2O)[C@](C)(OC)C[C@@H](C)C(=O)[C@H](C)[C@H]2NC(=O)O[C@@]21C [88c]
2 | – | – | – | 64 (≈ 70.3 µM) | 128 (≈ 141 µM) | 0.06 (≈ 0.0659 µM) | 0.5 (≈ 0.549 µM) | – | – | – | – | – | – | – | 1 (≈ 1.1 µM) | 32 (≈ 35.2 µM) | – | – | CC[C@H]1OC(=O)[C@H](C)[C@@H](OC(=O)NCCCCCCC#Cc2ccc3c(=O)[nH]cnc3c2)[C@H](C)[C@@H](O[C@@H]2O[C@H](C)C[C@H](N(C)C)[C@H]2O)[C@](C)(OC)C[C@@H](C)C(=O)[C@H](C)[C@H]2NC(=O)O[C@@]21C [88k]
3 | – | – | – | – | – | – | – | – | – | 256 (≈ 264 µM) | 256 (≈ 264 µM) | 0.25 (≈ 0.258 µM) | 256 (≈ 264 µM) | 0.25 (≈ 0.258 µM) | – | – | 8 (≈ 8.26 µM) | 256 (≈ 264 µM) | CC[C@H]1OC(=O)[C@H](C)[C@@H](OC(=O)NCCCCCCC#Cc2ccc3c(=O)n(CC(=O)O)cnc3c2)[C@H](C)[C@@H](O[C@@H]2O[C@H](C)C[C@H](N(C)C)[C@H]2O)[C@](C)(OC)C[C@@H](C)C(=O)[C@H](C)[C@H]2NC(=O)O[C@@]21C [88l]
4 | – | – | – | – | – | – | – | – | – | 32 (≈ 32.3 µM) | 16 (≈ 16.1 µM) | 4 (≈ 4.03 µM) | 16 (≈ 16.1 µM) | 1 (≈ 1.01 µM) | – | – | 16 (≈ 16.1 µM) | 32 (≈ 32.3 µM) | CC[C@H]1OC(=O)[C@H](C)[C@@H](OC(=O)NCCCCCCC#Cc2ccc3c(=O)c4c(O)cc(O)cc4oc3c2)[C@H](C)[C@@H](O[C@@H]2O[C@H](C)C[C@H](N(C)C)[C@H]2O)[C@](C)(OC)C[C@@H](C)C(=O)[C@H](C)[C@H]2NC(=O)O[C@@]21C [88m]

The next lines start with the compound.

Row | SMILES | MIC (S. aureus; S. aureus 15B196, c-ermB) [µg/mL] | MIC (S. aureus; S. aureus PU32, i-ermA) [µg/mL] | MIC (S. pyogenes; S. pyogenes 12-206, c-ermTR) [µg/mL] | MIC (H. influenzae; H. influenzae ATCC49247, Azi-S) [µg/mL] | MIC (S. pneumoniae; S. pneumoniae 07P390, c-ermB) [µg/mL] | MIC (S. pneumoniae; S. pneumoniae ATCC49619, Ery-S) [µg/mL] | MIC (S. pneumoniae; S. pneumoniae PU09, mef) [µg/mL] | MIC (S. aureus; [1]) [µg/mL] | MIC (S. aureus; [2]) [µg/mL] | MIC (S. pyogenes; [3]) [µg/mL] | MIC (H. influenzae; [4]) [µg/mL] | MIC (S. pneumoniae; [5]) [µg/mL] | MIC (S. pneumoniae; [6]) [µg/mL] | MIC (S. pneumoniae; [7]) [µg/mL] | MIC (S. pyogenes; S. pyogenes 01-968, i-ermTR (Table S5)) [µg/mL] | MIC (S. pyogenes; S. pyogenes 12-206, c-ermB (Table S5)) [µg/mL] | MIC (S. pyogenes; [8]) [µg/mL] | MIC (S. pyogenes; [9]) [µg/mL]
5 | CC[C@H]1OC(=O)[C@H](C)[C@@H](OC(=O)NCCCCCCCCc2ccc3c(c2)c(=O)c(C(N)=O)cn3C2CC2)[C@H](C)[C@@H](O[C@@H]2O[C@H](C)C[C@H](N(C)C)[C@H]2O)[C@](C)(OC)C[C@@H](C)C(=NOC)[C@H](C)[C@H]2OC(=O)O[C@@]21C [62b] | > 256 | 128 (≈ 125 µM) | 16 (≈ 15.6 µM) | > 256 | 32 (≈ 31.2 µM) | 0.5 (≈ 0.487 µM) | 4 (≈ 3.9 µM) | – | – | – | – | – | – | – | – | – | – | –
6 | CC[C@H]1OC(=O)[C@H](C)[C@@H](OC(=O)NCCCCCCCCCc2ccc3c(c2)c(=O)c(C(N)=O)cn3C2CC2)[C@H](C)[C@@H](O[C@@H]2O[C@H](C)C[C@H](N(C)C)[C@H]2O)[C@](C)(OC)C[C@@H](C)C(=NOC)[C@H](C)[C@H]2OC(=O)O[C@@]21C [63b] | > 256 | 64 (≈ 61.5 µM) | 16 (≈ 15.4 µM) | > 256 | 16 (≈ 15.4 µM) | 2 (≈ 1.92 µM) | 4 (≈ 3.85 µM) | – | – | – | – | – | – | – | – | – | – | –
7 | CC[C@H]1OC(=O)[C@H](C)[C@@H](OC(=O)NCCCCCCCCCCc2ccc3c(c2)c(=O)c(C(N)=O)cn3C2CC2)[C@H](C)[C@@H](O[C@@H]2O[C@H](C)C[C@H](N(C)C)[C@H]2O)[C@](C)(OC)C[C@@H](C)C(=NOC)[C@H](C)[C@H]2OC(=O)O[C@@]21C [64b] | > 256 | 64 (≈ 60.7 µM) | 16 (≈ 15.2 µM) | > 256 | 16 (≈ 15.2 µM) | 4 (≈ 3.79 µM) | 8 (≈ 7.59 µM) | – | – | – | – | – | – | – | – | – | – | –
8 | CC[C@H]1OC(=O)[C@H](C)[C@@H](OC(=O)NCCOCCC#Cc2ccc3c(=O)c(C(=O)O)cn(C4CC4)c3c2)[C@H](C)[C@@H](O[C@@H]2O[C@H](C)C[C@H](N(C)C)[C@H]2O)[C@](C)(OC)C[C@@H](C)C(=NOC)[C@H](C)[C@H]2OC(=O)O[C@@]21C [70c] | 128 (≈ 127 µM) | 4 (≈ 3.96 µM) | 2 (≈ 1.98 µM) | 32 (≈ 31.6 µM) | 0.25 (≈ 0.247 µM) | ≤ 0.008 | 0.06 (≈ 0.0593 µM) | – | – | – | – | – | – | – | – | – | – | –
9 | CCC1OC(=O)C(C)C(OC(=O)NCCOCCCC#Cc2ccc3c(=O)c(C(=O)O)cn(C4CC4)c3c2)C(C)C(OC2OC(C)CC(N(C)C)C2O)C(C)(OC)CC(C)C(=NOC)C(C)C2OC(=O)OC12C (stereo not shown) [71c] | – | – | – | – | – | – | – | 256 (≈ 250 µM) | 4 (≈ 3.9 µM) | 2 (≈ 1.95 µM) | 32 (≈ 31.2 µM) | ≤ 0.008 | 0.12 (≈ 0.117 µM) | ≤ 0.008 | – | – | – | –
10 | CCC1OC(=O)C(C)C(OC(=O)NCCCOCCC#Cc2ccc3c(=O)c(C(=O)O)cn(C4CC4)c3c2)C(C)C(OC2OC(C)CC(N(C)C)C2O)C(C)(OC)CC(C)C(=NOC)C(C)C2OC(=O)OC12C (stereo not shown) [72c] | – | – | – | – | – | – | – | 32 (≈ 31.2 µM) | 2 (≈ 1.95 µM) | 1 (≈ 0.975 µM) | 16 (≈ 15.6 µM) | ≤ 0.008 | 0.12 (≈ 0.117 µM) | ≤ 0.008 | – | – | – | –
